Here are results for 1 molecule from US20250312462A1, “PAK1 DEGRADERS AND METHODS OF USE THEREOF” (INSTITUTE FOR CANCER RESEARCH D/B/A THE RESEARCH INSTITUTE …, priority 2022, published 2025).

Usually pEC50 stands for −log10 of the EC50, conventionally taken in molar units.

In one assay the test system is OVCAR3 cells. Put plainly: Cell proliferation, MTT assay. In kind it is cell-based. Particulars: Homo sapiens, OVCAR-3, OVCAR3 cells, read-out: EC50, anti-proliferative. On the procedure: […]. Cell proliferation was assessed by MTT assay. […].
Cells were plated at 2×10^3 cells per well in 96-well plates overnight and treated with various concentrations of Pak degraders for 72 hours. Cell viability was measured by MTT assay and the half maximal inhibitory concentration (IC50) was calculated using GraphPad Prism. Triplicates were performed for each sample and medium alone was used as a blank.
The anti-proliferative effects of PAK1 degradation and inhibition were evaluated. […]. […] […]. […] […].

Another assay deals with T1, Aiolos (IKZF3) (Homo sapiens, UniProt Q96SW2+Q9UKT9).
T1 construct: endogenous in cells; host or cells: MOLT4
T1 sequence (Q9UKT9 whole entry): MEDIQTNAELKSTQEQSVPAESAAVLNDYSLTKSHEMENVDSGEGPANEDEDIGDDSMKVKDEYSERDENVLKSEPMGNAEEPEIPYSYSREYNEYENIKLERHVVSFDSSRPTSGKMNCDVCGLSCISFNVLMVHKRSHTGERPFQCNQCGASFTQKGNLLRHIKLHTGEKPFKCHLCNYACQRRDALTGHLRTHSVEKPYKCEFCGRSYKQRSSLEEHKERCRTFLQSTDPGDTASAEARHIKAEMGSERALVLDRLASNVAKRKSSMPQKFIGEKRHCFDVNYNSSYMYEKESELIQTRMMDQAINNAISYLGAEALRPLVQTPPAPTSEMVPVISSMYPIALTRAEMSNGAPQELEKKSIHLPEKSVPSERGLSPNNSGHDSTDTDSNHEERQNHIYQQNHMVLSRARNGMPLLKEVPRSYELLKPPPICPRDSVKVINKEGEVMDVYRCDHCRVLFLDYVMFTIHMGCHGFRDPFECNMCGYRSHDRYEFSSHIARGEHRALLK
T1 sequence (Q96SW2 whole entry): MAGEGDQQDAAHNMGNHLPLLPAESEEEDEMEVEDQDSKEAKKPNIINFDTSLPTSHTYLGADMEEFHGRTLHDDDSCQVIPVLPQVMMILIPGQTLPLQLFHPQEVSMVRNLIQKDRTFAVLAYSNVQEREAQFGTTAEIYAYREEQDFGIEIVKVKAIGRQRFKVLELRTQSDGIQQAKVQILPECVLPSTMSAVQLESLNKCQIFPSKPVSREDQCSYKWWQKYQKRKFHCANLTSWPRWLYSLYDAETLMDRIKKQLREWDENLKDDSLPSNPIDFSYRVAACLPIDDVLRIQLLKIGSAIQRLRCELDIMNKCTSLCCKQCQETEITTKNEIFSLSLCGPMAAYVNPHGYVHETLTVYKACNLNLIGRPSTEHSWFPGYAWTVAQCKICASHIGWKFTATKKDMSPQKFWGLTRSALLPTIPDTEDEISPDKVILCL
T1 sequence (Q16531 whole entry partner): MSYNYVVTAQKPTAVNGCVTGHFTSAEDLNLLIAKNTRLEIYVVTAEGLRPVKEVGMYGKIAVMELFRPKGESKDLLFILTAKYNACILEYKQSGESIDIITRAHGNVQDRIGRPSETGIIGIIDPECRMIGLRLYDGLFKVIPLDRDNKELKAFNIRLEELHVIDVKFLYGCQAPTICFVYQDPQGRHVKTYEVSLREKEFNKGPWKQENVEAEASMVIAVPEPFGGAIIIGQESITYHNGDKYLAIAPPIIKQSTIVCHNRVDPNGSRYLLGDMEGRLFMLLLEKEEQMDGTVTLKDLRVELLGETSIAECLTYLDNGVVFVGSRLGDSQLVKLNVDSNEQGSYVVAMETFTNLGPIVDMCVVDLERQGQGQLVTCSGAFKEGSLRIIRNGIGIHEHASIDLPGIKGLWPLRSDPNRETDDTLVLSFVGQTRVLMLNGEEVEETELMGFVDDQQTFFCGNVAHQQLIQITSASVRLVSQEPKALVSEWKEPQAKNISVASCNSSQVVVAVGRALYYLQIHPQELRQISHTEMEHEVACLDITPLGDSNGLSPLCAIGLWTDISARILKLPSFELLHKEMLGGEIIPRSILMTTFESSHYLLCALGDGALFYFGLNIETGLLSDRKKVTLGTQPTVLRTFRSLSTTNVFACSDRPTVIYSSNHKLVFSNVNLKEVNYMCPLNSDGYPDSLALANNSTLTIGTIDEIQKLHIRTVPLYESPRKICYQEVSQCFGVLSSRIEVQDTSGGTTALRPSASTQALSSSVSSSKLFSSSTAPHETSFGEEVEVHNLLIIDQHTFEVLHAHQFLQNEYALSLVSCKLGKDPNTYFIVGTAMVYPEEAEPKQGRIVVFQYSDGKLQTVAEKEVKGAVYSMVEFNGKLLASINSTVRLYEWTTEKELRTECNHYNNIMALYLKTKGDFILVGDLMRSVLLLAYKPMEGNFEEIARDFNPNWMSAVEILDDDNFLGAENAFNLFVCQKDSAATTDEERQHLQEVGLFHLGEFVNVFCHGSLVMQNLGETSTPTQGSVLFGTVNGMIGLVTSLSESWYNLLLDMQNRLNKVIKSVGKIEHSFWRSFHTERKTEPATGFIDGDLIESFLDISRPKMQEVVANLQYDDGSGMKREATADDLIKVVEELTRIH
Kind of assay: Global multiplexed mass spectrometry proteomics in MOLT4 cells. In kind it is cell-based. Particulars: 1 μM, 5 hours. On the procedure: (§1) MOLT4 cells were treated with DMSO in biological triplicate and 1 μM BJG-05-039 for 5 hours and harvested by centrifugation. Cell lysis was performed by the addition of Urea buffer (8 M Urea, 50 mM NaCl, 50 mM 4-(2-hydroxyethyl)-1-piperazineethanesulfonic acid (EPPS) pH 8.5, Protease and Phosphatase inhibitors) followed by manual homogenization by 20 passes through a 21-gauge (1.25 in. long) needle. Lysate was clarified by centrifugation at 4° C. and protein quantified using bradford (Bio-Rad) assay. 100 μg of protein for each sample was reduced, alkylated and precipitated using methanol/chloroform as described (Donovan, et al. (2018) Elife 7: e38430). The resulting precipitated protein was resuspended in 4 M Urea, 50 mM HEPES pH 7.4, buffer for solubilization, followed by dilution to 1 M urea with the addition of 200 mM EPPS, pH 8. Proteins were digested for 12 hours at room temperature with LysC (1:50 ratio), followed by dilution to 0.5 M urea and a second digestion step was performed by addition of trypsin (1:50 ratio) for 6 hours at 37° C. Anhydrous ACN was added to each peptide sample to a final concentration of 30%, followed by addition of Tandem mass tag (TMT) reagents at a labelling ratio of 1:4 peptide:TMT label. TMT labelling occurred over a 1.5 hour incubation at room temperature followed by quenching with the addition of hydroxylamine to a final concentration of 0.3%. Each of the samples were combined using adjusted volumes and dried down in a speed vacuum followed by desalting with C18 SPE (Sep-Pak, Waters). […]
(§2) Quantification was performed using a MS3-based TMT method as described (Donovan et al. (2020) Cell 183(6):1714-1731). […]
(§3) Proteome Discoverer 2.4 (Thermo Fisher Scientific) was used for .RAW file processing and controlling peptide and protein level false discovery rates, assembling proteins from peptides, and protein quantification from peptides. […]

Another assay addresses T2, Ikaros (IKZF1) (Homo sapiens, UniProt Q13422+Q96SW2).
T2 construct: endogenous in cells; host or cells: MOLT4
Described as above. It counts as cell-based. The settings on record: 1 μM, 5 hours. On the procedure:
as §1, §2, §3

A further assay concerns the target T3, RNF166 (Homo sapiens, UniProt Q96A37+Q96SW2).
T3 construct: endogenous in cells; host or cells: MOLT4
The assay is described as above. In kind it is cell-based. Particulars: 1 μM, 5 hours. On the procedure: as §1, §2, §3

Another assay has as its target RET (Homo sapiens, UniProt P07949). Kind of assay: KINOMEscan. The settings on record: read-out: Percent Control.
The target of a further assay is CSNK1D (Homo sapiens, UniProt P48730). Put plainly: KINOMEscan. The settings on record: read-out: Percent Control.
Sequence of CSNK1D (P48730 whole entry): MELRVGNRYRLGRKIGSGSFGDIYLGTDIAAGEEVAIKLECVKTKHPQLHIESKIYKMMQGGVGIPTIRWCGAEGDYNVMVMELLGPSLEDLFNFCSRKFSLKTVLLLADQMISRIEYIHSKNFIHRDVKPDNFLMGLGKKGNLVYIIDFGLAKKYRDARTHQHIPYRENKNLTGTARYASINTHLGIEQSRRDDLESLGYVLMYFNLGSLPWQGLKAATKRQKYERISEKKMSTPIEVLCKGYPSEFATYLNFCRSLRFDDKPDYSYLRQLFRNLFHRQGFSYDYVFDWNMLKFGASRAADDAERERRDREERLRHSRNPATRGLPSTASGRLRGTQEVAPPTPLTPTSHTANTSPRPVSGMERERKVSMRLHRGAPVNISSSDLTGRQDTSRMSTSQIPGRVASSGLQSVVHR
The next assay concerns the target FRK (Homo sapiens, UniProt P42685). Put plainly: KINOMEscan. Particulars: read-out: Percent Control.
The target of the next assay is MARK3 (Homo sapiens, UniProt P27448). Put plainly: KINOMEscan. The settings on record: read-out: Percent Control.
Another assay relates to FLT3(ITD). Kind of assay: KINOMEscan. Particulars: 10 μM.
The target in another assay is FER (Homo sapiens, UniProt P16591). Kind of assay: KINOMEscan. The settings on record: read-out: Percent Control.
Sequence of FER (P16591 whole entry): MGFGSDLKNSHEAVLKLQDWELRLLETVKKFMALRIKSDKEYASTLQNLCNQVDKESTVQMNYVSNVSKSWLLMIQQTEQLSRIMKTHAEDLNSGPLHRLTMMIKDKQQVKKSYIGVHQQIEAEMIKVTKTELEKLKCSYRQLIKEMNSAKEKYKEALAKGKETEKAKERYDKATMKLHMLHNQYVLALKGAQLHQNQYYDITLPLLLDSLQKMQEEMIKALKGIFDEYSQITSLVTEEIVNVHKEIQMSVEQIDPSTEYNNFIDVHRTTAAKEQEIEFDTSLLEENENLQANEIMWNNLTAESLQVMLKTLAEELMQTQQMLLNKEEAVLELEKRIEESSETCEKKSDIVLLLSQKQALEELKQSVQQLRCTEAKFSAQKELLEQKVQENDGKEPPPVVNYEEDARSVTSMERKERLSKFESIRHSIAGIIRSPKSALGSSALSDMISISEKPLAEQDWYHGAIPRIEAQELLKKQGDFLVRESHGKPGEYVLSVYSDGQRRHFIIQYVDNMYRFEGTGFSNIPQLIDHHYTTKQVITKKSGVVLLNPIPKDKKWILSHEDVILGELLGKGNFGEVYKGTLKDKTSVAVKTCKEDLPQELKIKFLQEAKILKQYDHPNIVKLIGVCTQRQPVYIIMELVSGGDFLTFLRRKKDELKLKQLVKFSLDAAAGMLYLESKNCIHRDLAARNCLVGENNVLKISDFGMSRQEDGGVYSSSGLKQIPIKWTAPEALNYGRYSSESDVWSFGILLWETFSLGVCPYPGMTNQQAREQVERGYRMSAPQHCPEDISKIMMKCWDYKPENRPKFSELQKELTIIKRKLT
The target of the next assay is PIP5K1A (Homo sapiens, UniProt Q99755). Kind of assay: KINOMEscan. Particulars: read-out: Percent Control.
The next assay addresses CLK4 (Homo sapiens, UniProt Q9HAZ1). Put plainly: KINOMEscan. Particulars: read-out: Percent Control.
The target in a further assay is OSR1 (Homo sapiens, UniProt O95747). Put plainly: KINOMEscan. Particulars: read-out: Percent Control.
Another assay concerns the target PIK3CB (Homo sapiens, UniProt P42338). Kind of assay: KINOMEscan. The settings on record: read-out: Percent Control.
The target of the next assay is PIK3CD (Homo sapiens, UniProt O00329). Put plainly: KINOMEscan. The settings on record: read-out: Percent Control.

pEC50: −log10 of the molar value. Where two headings read alike, the source gives them in different places.

T2 sequence (Q13422 whole entry): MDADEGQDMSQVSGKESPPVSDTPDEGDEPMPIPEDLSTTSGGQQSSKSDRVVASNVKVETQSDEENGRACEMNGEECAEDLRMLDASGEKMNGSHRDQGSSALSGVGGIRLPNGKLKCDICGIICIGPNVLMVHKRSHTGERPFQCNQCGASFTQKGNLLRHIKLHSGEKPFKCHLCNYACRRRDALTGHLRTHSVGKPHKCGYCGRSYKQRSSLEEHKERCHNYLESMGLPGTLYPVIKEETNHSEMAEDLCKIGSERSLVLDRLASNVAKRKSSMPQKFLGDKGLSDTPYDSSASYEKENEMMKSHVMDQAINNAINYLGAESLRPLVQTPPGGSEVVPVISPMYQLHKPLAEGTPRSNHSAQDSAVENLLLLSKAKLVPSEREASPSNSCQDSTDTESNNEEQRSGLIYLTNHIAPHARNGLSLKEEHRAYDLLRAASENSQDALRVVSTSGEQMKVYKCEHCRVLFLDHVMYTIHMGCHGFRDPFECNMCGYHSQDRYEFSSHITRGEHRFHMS
T2 sequence (Q96SW2 whole entry): as the sequence (Q96SW2 whole entry) above
T2 sequence (Q16531 whole entry partner): as the sequence (Q16531 whole entry partner) above
Sequence of PIK3CB (P42338 whole entry): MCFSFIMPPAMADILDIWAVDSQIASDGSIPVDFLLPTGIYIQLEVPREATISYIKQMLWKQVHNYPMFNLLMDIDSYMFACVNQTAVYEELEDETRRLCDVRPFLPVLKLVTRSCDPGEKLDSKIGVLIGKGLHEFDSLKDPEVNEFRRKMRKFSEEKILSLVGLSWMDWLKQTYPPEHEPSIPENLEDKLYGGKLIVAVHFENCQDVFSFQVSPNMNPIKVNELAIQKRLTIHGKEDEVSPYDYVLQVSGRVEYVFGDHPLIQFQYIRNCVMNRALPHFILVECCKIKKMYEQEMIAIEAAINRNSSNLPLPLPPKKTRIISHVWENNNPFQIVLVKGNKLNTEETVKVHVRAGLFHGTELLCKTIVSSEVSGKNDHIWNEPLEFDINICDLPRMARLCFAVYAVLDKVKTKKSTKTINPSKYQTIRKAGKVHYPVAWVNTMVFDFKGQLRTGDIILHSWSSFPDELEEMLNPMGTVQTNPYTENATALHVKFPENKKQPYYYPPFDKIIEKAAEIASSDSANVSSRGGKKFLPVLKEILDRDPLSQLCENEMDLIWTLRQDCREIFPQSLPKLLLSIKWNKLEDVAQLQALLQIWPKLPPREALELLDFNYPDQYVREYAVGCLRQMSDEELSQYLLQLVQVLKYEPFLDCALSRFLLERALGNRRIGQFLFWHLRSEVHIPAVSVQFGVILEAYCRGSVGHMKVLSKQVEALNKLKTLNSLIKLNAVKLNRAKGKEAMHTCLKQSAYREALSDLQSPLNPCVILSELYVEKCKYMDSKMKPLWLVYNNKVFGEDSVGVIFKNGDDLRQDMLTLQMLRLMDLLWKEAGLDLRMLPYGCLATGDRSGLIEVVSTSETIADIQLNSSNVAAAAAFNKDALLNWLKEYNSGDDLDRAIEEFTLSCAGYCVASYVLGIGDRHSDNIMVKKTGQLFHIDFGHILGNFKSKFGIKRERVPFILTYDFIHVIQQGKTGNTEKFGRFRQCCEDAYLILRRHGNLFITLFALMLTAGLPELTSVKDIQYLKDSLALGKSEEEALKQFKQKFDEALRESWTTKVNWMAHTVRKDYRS
Description for CLK4: (§4) The kinase engagement assay (KINOMEscan®) was performed by DiscoverX assessing binding abilities toward a set of kinases.
Description for CSNK1D: as §4
Description for FLT3(ITD): as §4
Description for FRK: as §4
Description for MARK3: as §4
Description for OSR1: as §4
Description for PIK3CB: as §4
Description for PIK3CD: as §4
Description for PIP5K1A: as §4
Description for RET: as §4

For the molecule `O=C1CCC(N2C(=O)c3cccc(NCCCCCCCCNC(=O)N4CC[C@H](NC5=Nc6cc(F)ccc6N(CC(F)F)c6ccc(Cl)cc65)C4)c3C2=O)C(=O)N1` (stereo partly drawn) [BJG-05-039, (3S)-3-((2-Chloro-5-(2,2-difluoroethyl)-8-fluoro-5H-dibenzo[b,e][1,4]diazepin-11-yl)amino)-N-(8-((2-(2,6-dioxopiperidin-3-yl)-1,3-dioxoisoindolin-4-yl)amino)octyl)pyrrolidine-1-carboxamide], the figures for the pEC50 in the assay on OVCAR3 cells (first statement of b311) and with OVCAR3 cells (second listing of b311) were 8.08 and 6.99, respectively. Also, the “Change in protein abundance” value on Aiolos (IKZF3), on Ikaros (IKZF1) and on RNF166 was “strongly downregulated” each time. For the same molecule, the remaining binding at 10 µM on RET came to 46%; on CSNK1D, 60%; at FRK it was 67%; at MARK3, 83%; on FER, 88%; at PIP5K1A it was 95%. The remaining binding at 10 µM on CLK4, at OSR1, at PIK3CB and on PIK3CD was 100% throughout. The “Percent Control” value in the assay with FLT3(ITD) amounted to 87.
